Numbered stars: 1 amine (or outer) side, 2 acyl side, 3 side chain; on linkers, the order of the positions; unused ones are H or OH. Bridge positions count the residues as written; N and C are the ends. Square brackets hold non-standard residues; d marks the D form. Peptide text beside a SMILES is read from it. I, II: the chains in the order shown. Actinocin(9to1) = Cc1c2oc3c(C)ccc(C(=O)[*:1])c3nc-2c(C(=O)[*:2])c(N)c1=O; NMeV = CN[C@H](C(=O)O)C(C)C; Sar = CNCC(=O)O
How the values were obtained:
[1] = test system: Pancreatic islet cell cancer (lymph node); test: MiCK assay, drug-induced apoptosis, Table 4 tumor A1; conditions: Table 4 tumor A1: Pancreatic islet cell cancer (lymph node); 48 hours with drug
Method: (§3) After overnight incubation, chemotherapy drugs were added to the wells of the 96-well plate in 5 μL aliquots or to the wells of a 384-well plate in 2.5 μL aliquots using an automated pipettor. The number of drugs or drug combinations and the number of concentrations tested depended on the number of viable malignant cells that were isolated from the tumor specimen. The drug concentrations, determined by molarity, were those indicated by the manufacturer as the desired blood level concentration plus or minus one serial dilution if enough cells were available.
(§4) Following drug addition, the plate was incubated for 30 min. at 37° C. in a 5% carbon dioxide humidified atmosphere incubator. Each well was then overlayed with sterile mineral oil, and the plate was placed into the incubator chamber of a microplate spectrophotometric reader. The optical density at 600 nanometers was read and recorded every 5 minutes over a period of 48 hours.
(§5) Patients: Three patients were included in this study. Two tumor samples from different tumor sites were collected from each patient. Both samples from each patient were collected on the same day.

[2] = test system: Pancreatic islet cell cancer (primary tumor); test: MiCK assay, drug-induced apoptosis, Table 4 tumor A2; conditions: 48 hours with drug
Method: as §3
(§6) Following drug addition, the plate was incubated for 30 min. at 37° C. in a 5% carbon dioxide humidified atmosphere incubator. Each well was then overlayed with sterile mineral oil, and the plate was placed into the incubator chamber of a microplate spectrophotometric reader. The optical density at 600 nanometers was read and recorded every 5 minutes over a period of 48 hours. Optical density increases, which correlates with apoptosis, were converted to kinetic units (KU) of apoptosis by a proprietary software ProApo with a formula described in the Kravtsov reference incorporated by reference (i.e. Kravtsov V. et al. “Use of the Microculture Kinetic Assay of apoptosis to determine chemosensitivities of leukemias.” Blood 1998; 92:968-980).
(§7) Purified tumor cells were cultured for 48 hours with individual drugs, and drug-induced apoptosis was measured using the MiCK assay as described in Example 1. Data were obtained optically using Mie light-scattering.

[3] = test system: NSCLC, bilateral well-differentiated adenocarcinoma (site 1B); test: MiCK assay, drug-induced apoptosis, Table 3 tumor B2; assay type: cell-based, human; conditions: Table 3 tumor B2: NSCLC, bilateral well-differentiated adenocarcinoma (site 1B); 48 hours with drug
From the text: (§1) Data were obtained optically using Mie light-scattering.
(§2) Do a test well. […] Look at the well under the inverted microscope. […] Repeat until optimal cell concentration is found. Plate the cells into the wells.

[4] = test system: Lung adenocarcinoma (pleural effusion); test: MiCK assay, drug-induced apoptosis, Table 4 tumor B1; assay type: cell-based, human; conditions: Table 4 tumor B1: Lung adenocarcinoma (pleural effusion); 48 hours with drug
From the text: as §1
Patients: Three patients were included in this study. […] Patient A was diagnosed with pancreatic islet cell cancer; sample 1 was collected from lymph node and sample 2 was collected from the primary tumor. Patient B was diagnosed with lung cancer NSCLC adenocarcinoma; sample 1 was collected from pleural effusion and sample 2 was collected from solid tumor. […] Ages of the patients ranged from 51-79 years old with an average age of 65 years. One patient was […] and two were female.

[5] = test system: NSCLC, bilateral well-differentiated adenocarcinoma (site 1A); test: MiCK assay, drug-induced apoptosis, Table 3 tumor B1; assay type: cell-based, human; conditions: Table 3 tumor B1: NSCLC, bilateral well-differentiated adenocarcinoma (site 1A); 48 hours with drug
From the text: as §1, §2

[6] = test system: NSCLC, multi-focal, recurrent adenocarcinoma (site A); test: MiCK assay, drug-induced apoptosis, Table 3 tumor C1; assay type: cell-based, human; conditions: Table 3 tumor C1: NSCLC, multi-focal, recurrent adenocarcinoma (site A); 48 hours with drug
From the text: as §1, §2

[7] = test system: NSCLC, multi-focal, recurrent adenocarcinoma (right lung); test: MiCK assay, drug-induced apoptosis, Table 3 tumor D1; assay type: cell-based, human; conditions: Table 3 tumor D1: NSCLC, multi-focal, recurrent adenocarcinoma (right lung); 48 hours with drug
From the text: as §1, §2

[8] = test system: Probable mesothelioma (pleural effusion); test: MiCK assay, drug-induced apoptosis, Table 3 tumor A2; assay type: cell-based, human; conditions: Table 3 tumor A2: Probable mesothelioma (pleural effusion); 48 hours with drug
Method: as §1
When the optimal cell concentration is reached, put the cells in the plate and incubate overnight in the incubating chamber of the incubator (37° C.).

[9] = test system: Lung small cell carcinoma (site A); test: MiCK assay, drug-induced apoptosis, Table 4 tumor C1; conditions: Table 4 tumor C1: Lung small cell carcinoma (site A); 48 hours with drug
Method: as §3, §4, §5

[10] = test system: Lung adenocarcinoma (site B); test: MiCK assay, drug-induced apoptosis, Table 4 tumor C2; conditions: Table 4 tumor C2: Lung adenocarcinoma (site B); 48 hours with drug
Method: as §3, §6, §7

[11] = test system: NSCLC, multi-focal, recurrent adenocarcinoma (lymph node); test: MiCK assay, drug-induced apoptosis, Table 3 tumor D2; assay type: cell-based, human; conditions: Table 3 tumor D2: NSCLC, multi-focal, recurrent adenocarcinoma (lymph node); 48 hours with drug
From the text: as §1, §2

[12] = test system: NSCLC, multi-focal adenocarcinoma (site A); test: MiCK assay, drug-induced apoptosis, Table 3 tumor E1; assay type: cell-based, human; conditions: Table 3 tumor E1: NSCLC, multi-focal adenocarcinoma (site A); 48 hours with drug
From the text: as §1, §2

Molecule	kinetic units (KU) of apoptosis [1] [KU]	kinetic units (KU) of apoptosis [3] [KU]	kinetic units (KU) of apoptosis [5] [KU]	kinetic units (KU) of apoptosis [8] [KU]	kinetic units (KU) of apoptosis [9] [KU]	other results
Nc1ncn([C@@H]2O[C@H](CO)[C@@H](O)[C@H]2O)c(=O)n1 [Vidaza]	1.00					
Cn1nnc2c(C(N)=O)ncn2c1=O [Temozolomide]	0.62					kinetic units (KU) of apoptosis [2]: 1.22 KU
CO[C@@]12[C@H](COC(N)=O)C3=C(C(=O)C(C)=C(N)C3=O)N1C[C@@H]1N[C@@H]12 [Mitomycin]	1.04	1.00	1.20	1.00	6.30	kinetic units (KU) of apoptosis [4]: 0.90 KU; kinetic units (KU) of apoptosis [6]: 0.00 KU; kinetic units (KU) of apoptosis [7]: 0.60 KU
CN(N=O)C(=O)N[C@@H](C=O)[C@@H](O)[C@H](O)[C@H](O)CO [Streptozocin]	0.23					kinetic units (KU) of apoptosis [2]: 0.0 KU
CC(C)C[C@H](NC(=O)[C@H](Cc1ccccc1)NC(=O)c1cnccn1)B(O)O [Velcade, Bortezomib]	0.79	2.00	2.00	1.10	1.60	kinetic units (KU) of apoptosis [4]: 3.40 KU; kinetic units (KU) of apoptosis [6]: 0.20 KU; kinetic units (KU) of apoptosis [7]: 0.60 KU; kinetic units (KU) of apoptosis [10]: 1.80 KU
O=NN(CCCl)C(=O)NCCCl [Carmustine]	0.82				3.00	kinetic units (KU) of apoptosis [4]: 1.20 KU; kinetic units (KU) of apoptosis [10]: 0.50 KU
Nc1nc2[nH]cc(CCc3ccc(C(=O)N[C@@H](CCC(=O)O)C(=O)O)cc3)c2c(=O)[nH]1 [Alimta, Pemetrexed]	0.22	1.60	1.40	1.20	1.40	kinetic units (KU) of apoptosis [11]: 0.60 KU; kinetic units (KU) of apoptosis [6]: 0.80 KU; kinetic units (KU) of apoptosis [7]: 0.70 KU; kinetic units (KU) of apoptosis [10]: 0.70 KU
Cc1c2oc3c(C)ccc(C(=O)N[C@@H]4C(=O)N[C@H](C(C)C)C(=O)N5CCC[C@H]5C(=O)N(C)CC(=O)N(C)[C@@H](C(C)C)C(=O)O[C@@H]4C)c3nc-2c(C(=O)N[C@@H]2C(=O)N[C@H](C(C)C)C(=O)N3CCC[C@H]3C(=O)N(C)CC(=O)N(C)[C@@H](C(C)C)C(=O)O[C@@H]2C)c(N)c1=O [Dactinomycin] (I: T[dV]P[Sar][NMeV] / II: T[dV]P[Sar][NMeV]; ester I:1-I:C, II:1-II:C; linker I:N-II:N via Actinocin(9to1))		0.90	1.20	4.70	7.70	kinetic units (KU) of apoptosis [4]: 2.70 KU; kinetic units (KU) of apoptosis [7]: 0.90 KU; kinetic units (KU) of apoptosis [10]: 3.00 KU
O=C1c2c(O)ccc(O)c2C(=O)c2c(NCCNCCO)ccc(NCCNCCO)c21 [Mitoxantrone]	0.82				1.60	kinetic units (KU) of apoptosis [4]: 2.30 KU
C#Cc1cccc(Nc2ncnc3cc(OCCOC)c(OCCOC)cc23)c1 [Tarceva]	0.66	0.60	0.60	0.80	0.00	kinetic units (KU) of apoptosis [7]: 0.5 KU; kinetic units (KU) of apoptosis [10]: 0.70 KU
N[C@@H](Cc1ccc(N(CCCl)CCCl)cc1)C(=O)O [Melphalan]	0.57					kinetic units (KU) of apoptosis [4]: 3.10 KU
CC(=O)[C@]1(O)Cc2c(O)c3c(c(O)c2[C@@H](O[C@H]2C[C@H](N)[C@H](O)[C@H](C)O2)C1)C(=O)c1ccccc1C3=O [Idarubicin]	1.22	1.10	1.20	4.00	8.00	kinetic units (KU) of apoptosis [6]: 0.90 KU; kinetic units (KU) of apoptosis [7]: 1.30 KU; kinetic units (KU) of apoptosis [10]: 3.00 KU
Cn1c(CCCC(=O)O)nc2cc(N(CCCl)CCCl)ccc21 [Bendamustine]	1.39					
O=c1[nH]cc(F)c(=O)[nH]1 [5FU, 5-Fluorouracil]	0.42					
CNC(=O)c1cc(Oc2ccc(NC(=O)Nc3ccc(Cl)c(C(F)(F)F)c3)cc2)ccn1 [Sorafenib]	1.57					
Nc1nc(Cl)nc2c1ncn2[C@H]1C[C@H](O)[C@@H](CO)O1 [Cladribine]	0.61					
CC[C@]1(O)C[C@@H]2CN(CCc3c([nH]c4ccccc34)[C@@](C(=O)OC)(c3cc4c(cc3OC)N(C)[C@H]3[C@@](O)(C(=O)OC)[C@H](OC(C)=O)[C@]5(CC)C=CCN6CC[C@]43[C@@H]65)C2)C1 [Vinblastine]	1.00				3.10	kinetic units (KU) of apoptosis [10]: 2.00 KU
CN(C)/N=N/c1[nH]cnc1C(N)=O [Dacarbazine]	1.31					kinetic units (KU) of apoptosis [2]: 0.00 KU
O=P1(NCCCl)OCCCN1CCCl (centres unmarked) [4HI (Ifosfamide), Ifosfamide]	3.01	0.70	2.70	3.40	1.50	kinetic units (KU) of apoptosis [12]: 0.10 KU; kinetic units (KU) of apoptosis [4]: 2.40 KU; kinetic units (KU) of apoptosis [11]: 1.20 KU; kinetic units (KU) of apoptosis [6]: 0.50 KU
CCN(CC)CCNC(=O)c1c(C)[nH]c(/C=C2\C(=O)Nc3ccc(F)cc32)c1C [Sunitinib]	1.93					kinetic units (KU) of apoptosis [4]: 0.70 KU; kinetic units (KU) of apoptosis [2]: 2.06 KU
O=NN(CCCl)C(=O)NC1CCCCC1 [CCNU]	1.00				0.90	
C/C(=C\c1csc(C)n1)[C@@H]1C[C@@H]2O[C@]2(C)CCC[C@H](C)[C@H](O)[C@@H](C)C(=O)C(C)(C)[C@@H](O)CC(=O)N1 [Ixabepilone]	1.00					
COc1cccc2c1C(=O)c1c(O)c3c(c(O)c1C2=O)C[C@@](O)(C(C)=O)C[C@@H]3O[C@H]1C[C@H](N)[C@H](O)[C@H](C)O1 [Daunorubicin]		1.40	1.40	3.80	8.10	
CCCCCOC(=O)Nc1nc(=O)n([C@@H]2O[C@H](C)[C@@H](O)[C@H]2O)cc1F [Xeloda]	0.42					kinetic units (KU) of apoptosis [2]: 0.90 KU
CO[C@H]1C[C@@H]2CC[C@@H](C)[C@@](O)(O2)C(=O)C(=O)N2CCCC[C@H]2C(=O)O[C@H]([C@H](C)C[C@@H]2CC[C@@H](OCCO)[C@H](OC)C2)CC(=O)[C@H](C)/C=C(\C)[C@@H](O)[C@@H](OC)C(=O)[C@H](C)C[C@H](C)/C=C/C=C/C=C/1C [Everolimus]	1.31				0.50	kinetic units (KU) of apoptosis [10]: 1.00 KU; kinetic units (KU) of apoptosis [2]: 0.00 KU
Cc1ccc(NC(=O)c2ccc(CN3CCN(C)CC3)cc2)cc1Nc1nccc(-c2cccnc2)n1 [Gleevec, imatinib]	0.39				0.00	
Bleomycin		1.30	1.90	1.00		
